pIC50: −log10 of the molar value. ≈ marks a conversion by molar mass, not a printed value. Where “and” joins values, the source holds several entries; their conditions need not be identical. Equal values may be shown once.
Experiments:
[1] = Non-equilibrium solubility by nephelometry, pH 6.5; assay type: physicochemical; conditions: for solubility: phosphate buffer
[2] = In vitro metabolism in human liver microsomes; assay type: in vitro ADME; conditions: for Eh Human: predicted hepatic extraction ratio; for microsomal CLint at 1 μM: microsomes, pH 7.4
human albumin = human albumin (Homo sapiens, UniProt P02768); assay: Protein binding estimated on human albumin column; assay type: in vitro ADME; conditions: human albumin chromatographic method
Chain of human albumin (P02768 25-609): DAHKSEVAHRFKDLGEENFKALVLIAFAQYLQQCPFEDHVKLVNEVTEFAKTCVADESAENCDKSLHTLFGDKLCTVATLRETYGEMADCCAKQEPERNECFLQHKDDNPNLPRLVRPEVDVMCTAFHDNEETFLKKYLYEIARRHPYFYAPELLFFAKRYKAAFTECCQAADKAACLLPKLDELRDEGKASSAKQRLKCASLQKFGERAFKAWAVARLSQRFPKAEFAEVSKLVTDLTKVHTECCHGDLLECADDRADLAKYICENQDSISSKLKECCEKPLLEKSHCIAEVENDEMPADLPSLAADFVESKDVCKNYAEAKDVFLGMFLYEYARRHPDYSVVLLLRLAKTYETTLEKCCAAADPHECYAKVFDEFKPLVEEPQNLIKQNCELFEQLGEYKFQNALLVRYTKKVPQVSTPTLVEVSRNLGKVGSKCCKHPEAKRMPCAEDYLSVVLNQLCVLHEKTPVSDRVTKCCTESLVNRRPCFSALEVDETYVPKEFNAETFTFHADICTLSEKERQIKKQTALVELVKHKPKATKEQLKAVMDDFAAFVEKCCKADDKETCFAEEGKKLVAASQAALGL

PfDHODH = target: T1, PfDHODH (Plasmodium falciparum, UniProt Q08210); assay: PfDHODH DCIP dye-based enzyme assay; assay type: biochemical; conditions: for pIC50: IC50 PfDHODH
T1 sequence (Q08210 158-569 limits assumed): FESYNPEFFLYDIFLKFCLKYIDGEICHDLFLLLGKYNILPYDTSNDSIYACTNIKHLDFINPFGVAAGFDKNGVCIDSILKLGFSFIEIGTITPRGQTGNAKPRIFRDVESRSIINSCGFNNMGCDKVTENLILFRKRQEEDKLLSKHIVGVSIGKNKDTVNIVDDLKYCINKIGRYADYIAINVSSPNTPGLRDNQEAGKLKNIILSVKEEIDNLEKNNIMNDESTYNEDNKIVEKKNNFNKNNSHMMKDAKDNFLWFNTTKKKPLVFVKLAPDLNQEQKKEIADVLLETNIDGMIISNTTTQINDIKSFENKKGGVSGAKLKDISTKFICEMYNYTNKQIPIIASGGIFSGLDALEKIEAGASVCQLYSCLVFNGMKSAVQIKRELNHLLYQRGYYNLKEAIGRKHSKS

[3] = In vitro metabolism in mouse liver microsomes; assay type: in vitro ADME; conditions: for Eh Mouse: predicted hepatic extraction ratio; for microsomal CLint at 1 μM: microsomes, pH 7.4
[4] = Mouse systemic exposure after single oral dose; assay type: in vivo; conditions: single oral dose 20 mg/kg, plasma

| pIC50 (PfDHODH) | Structure (SMILES) | solubility [1] | Eh Human [2] | Human Plasma Binding (human albumin) | also measured |
| --- | --- | --- | --- | --- | --- |
|  | CCc1ccc(Nc2cc(C)nc3ncnn23)cc1 [Compound 7, N-(4-Ethylphenyl)-5-methyl-[1,2,4]triazolo[1,5-a]pyrimidin-7-amine] | 25 to 50 µM (≈ 6.33 to 12.7 µg/mL) | 0.77/ND | 88.0% |  |
|  | CCCc1ccc(Nc2cc(C)nc3ncnn23)cc1 [Compound 8, N-(4-Propylphenyl)-5-methyl-[1,2,4]triazolo[1,5-a]pyrimidin-7-amine] | 187 to 374 µM (≈ 50 to 100 µg/mL) | 0.66/ND | 93.5% | aqueous solubility at pH 6.5 (in words) [1]: highly soluble |
|  | CCCCc1ccc(Nc2cc(C)nc3ncnn23)cc1 [Compound 9, N-(4-Butylphenyl)-5-methyl-[1,2,4]triazolo[1,5-a]pyrimidin-7-amine] | 11 to 22 µM (≈ 3.09 to 6.19 µg/mL) | 0.67/ND | 96.7% | aqueous solubility at pH 6.5 (in words) [1]: poorly soluble |
| < 4.30 | CCCCCCCCc1ccc(Nc2cc(C)nc3ncnn23)cc1 [Compound 13, N-(4-Octylphenyl)-5-methyl-[1,2,4]triazolo[1,5-a]pyrimidin-7-amine] |  |  |  |  |
|  | Cc1cc(Nc2ccc(C(C)C)cc2)n2ncnc2n1 [Compound 14, N-(4-Isopropylphenyl)-5-methyl-[1,2,4]triazolo[1,5-a]pyrimidin-7-amine] | 47 to 94 µM (≈ 12.6 to 25.1 µg/mL) | 0.64 | 91.3% | Eh Mouse [3]: 0.91; Time above 1 μM [4]: <1 h |
|  | Cc1cc(Nc2ccc(C(C)(C)C)cc2)n2ncnc2n1 [Compound 15, N-(4-tert-Butylphenyl)-5-methyl-[1,2,4]triazolo[1,5-a]pyrimidin-7-amine] | 11 to 22 µM (≈ 3.09 to 6.19 µg/mL) |  | 93.2% | microsomal CLint at 1 μM [3]: > 30 µL/min/mg; aqueous solubility at pH 6.5 (in words) [1]: poorly soluble; microsomal CLint at 1 μM [2]: > 30 µL/min/mg; pIC50 (PfDHODH; stated in text): > 7.00 |
|  | Cc1cc(Nc2ccc(C3CC3)cc2)n2ncnc2n1 [Compound 16, N-(4-Cyclopropylphenyl)-5-methyl-[1,2,4]triazolo[1,5-a]pyrimidin-7-amine] |  | 0.75 | 86.8% | Eh Mouse [3]: 0.93; aqueous solubility at pH 6.5 (in words) [1]: highly soluble |
|  | C=Cc1ccc(Nc2cc(C)nc3ncnn23)cc1 [Compound 17, N-(4-Vinylphenyl)-5-methyl-[1,2,4]triazolo[1,5-a]pyrimidin-7-amine] | 25 to 50 µM (≈ 6.28 to 12.6 µg/mL) | 0.64 | 84.4% | Eh Mouse [3]: 0.88 |
|  | C#Cc1ccc(Nc2cc(C)nc3ncnn23)cc1 [Compound 18, N-(4-Ethynylphenyl)-5-methyl-[1,2,4]triazolo[1,5-a]pyrimidin-7-amine] | 100 to 200 µM (≈ 24.9 to 49.9 µg/mL) | 0.31 | 81.8% | microsomal CLint at 1 μM [3]: > 25 µL/min/mg; Eh Mouse [3]: 0.54; microsomal CLint at 1 μM [2]: < 10 µL/min/mg |
|  | Cc1cc(Nc2ccc(SC(F)(F)F)cc2)n2ncnc2n1 [Compound 20, 5-Methyl-N-(4-(trifuoromethylthio)phenyl)-[1,2,4]triazolo[1,5-a]pyrimidin-7-amine] | 5 to 10 µM (≈ 1.63 to 3.25 µg/mL) | < 0.2 | 96.1% | microsomal CLint at 1 μM [3]: > 25 µL/min/mg; Eh Mouse [3]: 0.84; aqueous solubility at pH 6.5 (in words) [1]: poorly soluble; microsomal CLint at 1 μM [2]: < 10 µL/min/mg |
|  | Cc1cc(Nc2ccc(N(C)C)cc2)n2ncnc2n1 [Compound 23, N^1,N^1-Dimethyl-N^4-(5-methyl-[1,2,4]triazolo[1,5-a]pyrimidin-7-yl)benzene-1,4-diamine] | 93 to 186 µM (≈ 25 to 49.9 µg/mL) | 0.4 |  | Eh Mouse [3]: 0.91; fold less potent / increase of PfDHODH IC50 over 14 (PfDHODH; comparator 14): 4 fold |
| < 4.00 | Cc1cc(Nc2ccc(N3CCOCC3)cc2)n2ncnc2n1 [Compound 25, N-(4-Morpholinophenyl)-5-methyl-[1,2,4]triazolo[1,5-a]pyrimidin-7-amine] |  |  |  |  |
| < 4.30 | Cc1cc(Nc2ccc(NC(C)(C)C)cc2)n2ncnc2n1 [Compound 26, N^1-tert-Butyl-N^4(5-methyl-[1,2,4]triazolo[1,5-a]pyrimidin-7-yl)benzene-1,4-diamine] |  |  |  |  |
|  | Cc1cc(Nc2ccc(C(C)(C)C)c(F)c2)n2ncnc2n1 [Compound 29, N-(4-tert-Butyl-3-fluorophenyl)-5-methyl-[1,2,4]triazolo[1,5-a]pyrimidin-7-amine] |  |  | 96.4% | microsomal CLint at 1 μM [3]: > 30 µL/min/mg; aqueous solubility at pH 6.5 (in words) [1]: poorly soluble; microsomal CLint at 1 μM [2]: > 30 µL/min/mg; pIC50 (PfDHODH; stated in text): > 7.00 and ~7.52; fold decrease in PfDHODH IC50 vs 15 (PfDHODH; comparator 15): 2 fold; Time above 1 μM [4]: <1 h |
|  | Cc1cc(Nc2ccc(Cl)c(F)c2)n2ncnc2n1 [Compound 30, N-(4-Chloro-3-fluorophenyl)-5-methyl-[1,2,4]triazolo[1,5-a]pyrimidin-7-amine] |  |  |  | fold decrease in PfDHODH IC50 over the 4-Cl alone (PfDHODH; comparator 4-Cl-Ph (DSM89)): 3 fold |
|  | Cc1cc(Nc2ccc3c(c2)CCC3)n2ncnc2n1 [Compound 34, N-(2,3-dihydro1H-inden-5-yl)-5-methyl-[1,2,4]triazolo[1,5-a]pyrimidin-7-amine] | 47 to 94 µM (≈ 12.5 to 24.9 µg/mL) | 0.81 | 92.5% | Eh Mouse [3]: 0.94 |

| pIC50 (PfDHODH) | Structure (SMILES) | solubility [1] | Eh Human [2] | Human Plasma Binding (human albumin) | also measured |
| --- | --- | --- | --- | --- | --- |
|  | Cc1cc(Nc2ccc3c(c2)OCO3)n2ncnc2n1 [Compound 35, N-(Benzo[d][1,3]dioxol-5yl)-5-methyl-[1,2,4]triazolo[1,5-a]pyrimidin-7-amine] | 186 to 372 µM (≈ 50.1 to 100 µg/mL) | 0.37/ND |  | aqueous solubility at pH 6.5 (in words) [1]: highly soluble |
| < 4.00 | Cc1cc(NC2CC2)n2ncnc2n1 [Compound 38, N-Cyclopropyl-5-methyl-[1,2,4]triazolo[1,5-a]pyrimidin-7-amine] |  |  |  |  |
| < 4.00 | Cc1cc(NC2CCC2)n2ncnc2n1 [Compound 39, N-Cyclobutyl-5-methyl-[1,2,4]triazolo[1,5-a]pyrimidin-7-amine] |  |  |  |  |
| < 4.00 | Cc1cc(NC2CCCC2)n2ncnc2n1 [Compound 40, N-Cyclopentyl-5-methyl-[1,2,4]triazolo[1,5-a]pyrimidin-7-amine] |  |  |  |  |
| < 4.00 | Cc1cc(NC2CCCCC2)n2ncnc2n1 [Compound 41, N-Cyclohexyl-5-methyl-[1,2,4]triazolo[1,5-a]pyrimidin-7-amine] |  |  |  |  |
| < 4.00 | Cc1cc(NC2CCCCCC2)n2ncnc2n1 [Compound 42, N-Cycloheptyl-5-methyl-[1,2,4]triazolo[1,5-a]pyrimidin-7-amine] |  |  |  |  |
| < 4.00 | Cc1cc(NC2CCCCCCC2)n2ncnc2n1 [Compound 43, N-Cyclooctyl-5-methyl-[1,2,4]triazolo[1,5-a]pyrimidin-7-amine] |  |  |  |  |
|  | Cc1cc(NC2Cc3ccccc3C2)n2ncnc2n1 [Compound 45, N-(2,3-Dihydro-1H-inden-2-yl)-5-methyl-[1,2,4]triazolo[1,5-a]pyrimidin-7-amine] | 188 to 376 µM (≈ 49.9 to 99.8 µg/mL) | < 0.2 | 76.1% | microsomal CLint at 1 μM [3]: > 25 µL/min/mg; Eh Mouse [3]: 0.59; aqueous solubility at pH 6.5 (in words) [1]: highly soluble; microsomal CLint at 1 μM [2]: < 10 µL/min/mg; Time above 1 μM [4]: <1 h |
|  | Cc1cc(NC2CCc3ccccc3C2)n2ncnc2n1 (centres unmarked) [Compound 49, 5-Methyl-N-(1,2,3,4-tetrahydronaphthalen-2-yl)-[1,2,4]triazolo[1,5-a]pyrimidin-7-amine] |  | < 0.2 |  | microsomal CLint at 1 μM [3]: > 25 µL/min/mg; Eh Mouse [3]: 0.61; aqueous solubility at pH 6.5 (in words) [1]: highly soluble; microsomal CLint at 1 μM [2]: < 10 µL/min/mg |
| < 4.00 | Cc1cc(NCc2ccccc2)n2ncnc2n1 [Compound 53] |  |  |  |  |
|  | Cc1cc(NCCc2ccccc2)n2ncnc2n1 [Compound 56, 5-Methyl-N-phenethyl-[1,2,4]triazolo[1,5-a]pyrimidin-7-amine] |  |  |  | activity against PfDHODH (in words) (PfDHODH): mid-micromolar range activity |
|  | Cc1cc(NCCCc2ccccc2)n2ncnc2n1 [Compound 57] |  |  |  | activity against PfDHODH (in words) (PfDHODH): mid-micromolar range activity |
|  | CCc1cc(Nc2ccc(C(F)(F)F)cc2)n2ncnc2n1 [Compound 59, 5-Ethyl-N-(4-trifluoromethyl)phenyl-[1,2,4]triazolo[1,5-a]pyrimidin-7-amine] |  |  |  | fold reduction in PfDHODH inhibitory activity versus 2 (PfDHODH; comparator 2): 2 fold |
|  | FC(F)(F)c1ccc(Nc2cc(C(F)(F)F)nc3ncnn23)cc1 [Compound 60] |  |  |  | fold reduction in PfDHODH inhibitory activity versus 2 (PfDHODH; comparator 2): 4 fold |
|  | FC(F)(F)c1ccc(Nc2cc(Cl)nc3ncnn23)cc1 [Compound 61] |  |  |  | fold better activity (lower IC50) against PfDHODH than 2 (PfDHODH; comparator 2): 2 fold |

| Structure (SMILES) | pIC50 (PfDHODH) | solubility [1] | Eh Human [2] | Human Plasma Binding (human albumin) | also measured |
| --- | --- | --- | --- | --- | --- |
| Cc1cc(Nc2ccc3c(c2)CCCC3)n2ncnc2n1 [Compound 33, 5-methyl-N-(5,6,7,8-tetrahydronaphthalen-2yl)-[1,2,4]triazolo[1,5-a]pyrimidin-7-amine] | 7.46 | 89 to 179 µM (≈ 24.9 to 50 µg/mL) |  | 95.5% | microsomal CLint at 1 μM [3]: > 30 µL/min/mg; microsomal CLint at 1 μM [2]: > 30 µL/min/mg; pIC50 (PfDHODH; stated in text): > 7.00 and ~7.52 |
| Cc1cc(NOc2ccccc2)n2ncnc2n1 [Compound 52, N-(5-Methyl-[1,2,4]triazolo[1,5-a]pyrimidin-7-yl)-O-phenylhydroxylamine] | < 4.00 |  |  |  | activity against PfDHODH (in words) (PfDHODH): inactive |
| Cc1cc(NCc2ccc(F)cc2)n2ncnc2n1 [Compound 54] | < 4.00 |  |  |  | activity against PfDHODH (in words) (PfDHODH): inactive |
| Cc1cc(NCc2ccc(C(F)(F)F)cc2)n2ncnc2n1 [Compound 55] | < 4.00 |  |  |  | activity against PfDHODH (in words) (PfDHODH): inactive |
| CCCc1c(C)nc2ncnn2c1Nc1ccc(C)cc1 [Compound 64] | < 4.00 |  |  |  | activity against PfDHODH (in words) (PfDHODH): complete loss in activity |

Reference: PMC3124361 (Journal of medicinal chemistry, 2011)
